# In the oligonucleotide strings, read from the 5' end, every base follows the letter of its sugar. An asterisk marks phosphorothioate; unmarked linkages are phosphodiester. Other units and linkages are bracketed, terminal groups are in braces. A string of capitals states the bases alone. d = 2'-deoxy (DNA)
# How the values were obtained:
# [1] = Acute single dose toxicity in rats; assay type: in vivo
# Description: The clinical starting dose for the 7-days-on and 7-days-off schedule was based on the Lowest-Observed-Adverse-Effect-Level (LOAEL) devoid of severe toxicity in Cynomolgus monkeys as the most relevant species. This LOAEL of 4 mg/kg body weight (b.w.)/day is equivalent to approximately 1.3 mg/kg b.w./day or 48 mg/m^2/day on a body surface area basis in human adults. These numbers were rounded down and the safe starting dose was defined at 40 mg/m^2/day, equivalent to approximately 1 mg/kg b.w./day in humans. An alternative approach would have been based on the lowest lethal dose (LLD) of 300 mg/kg b.w. obtained in the acute single dose toxicity study in mice (in rats it was determined at 1000 mg/kg), at which 1 of 10 mice died (LLD10). According to the standard method, 10% of this dose (30 mg/kg) on a body surface area basis would then be defined as the clinical starting dose resulting in 90 mg/m^2/day. In the end, the lower of the two alternatives was chosen as starting dose.
# A-172 glioma cells = assay: Proliferation of A-172 glioma cells; assay type: cell-based; details: 7 days, treatment schedule 2*2/1*3 d
# Description: A-172 glioma cells were treated with a combination of AP12009 (trabedersen) 0 to 10 μM) and different concentrations of TMZ (temozolomide) for 7 days (treatment schedule 2*2/1*3 d).
# In summary there is no clear beneficial effect in combining AP12009 with TMZ in A-172 cells.
substance,measurement,setting,value
trabedersen: TGFβ2 specific phosphorothioate antisense oligodeoxynucleotide with the sequence 5′-CGGCATGTCTATTTTGTA-3′ (SEQ ID No: 1) (antisense dC*dG*dG*dC*dA*dT*dG*dT*dC*dT*dA*dT*dT*dT*dT*dG*dT*dA),lowest lethal dose (LLD),[1],1000 mg/kg
same,effect on cell proliferation,A-172 glioma cells,slightly reduced cell proliferation
